Assay results published in US20250339569A1, “CARBONIC ANHYDRASE IX LIGANDS” (priority 2021, published 2025).
Like-named read-outs stand apart in the source and are kept apart here.

Assays:
SK-RC-52 tumor = test: Biodistribution study (SPECT/CT) in SK-RC-52 tumor-bearing mice with or without gelofusine; type: in vivo, NMRI nude mice; settings: SK-RC-52, In-111-labeled; for % remaining tumor uptake at 24 h p.i.: Mean ± SEM
HT-29 tumor = test: Biodistribution study (SPECT/CT) in HT-29 tumor-bearing mice; type: in vivo, NMRI nude mice; settings: HT-29, In-111-labeled
Protocol: (§1) The effect on tumor uptake of prior injection of gelofusine for kidney protection was investigated in mice bearing the SK-RC-52 tumor. Biodistribution was evaluated using in vivo SPECT/CT imaging. Prior to the in vivo study the compounds (ligands) were initially radiolabeled with In-111 and the stability of radiolabeled compounds was evaluated in buffer at three different timepoints.
(§2) The study was performed in female NMRI nude mice (approximately 6 weeks of age) from Janvier Labs, France, housed up to 5 mice per cage.
(§3) The column was washed with 2 mL water, and then the final product was eluted from the column in EtOH solution (50%) • The sample was formulated in PBS to the final concentration of 150 MBq/mL and 5 nmol/mL.
(§4) SK-RC-52 cells were cultured in RPMI 1640 with GlutaMax-I (Thermo Fisher Scientific #61870044) supplemented with 10% fetal bovine serum+1% penicillin/streptomycin, harvested, washed twice in RPMI 1640 and resuspended at 2×10^7 cells/mL in RPMI 1640. HT-29 cells were cultured in McCoy's 5a Medium Modified (Sigma #M9309). For inoculation of HT-29 cells, cells were harvested, washed twice in PBS and resuspended at 5×10^7 cells/mL in PBS. Cells were kept on ice until inoculation.
(§5) Animals were anaesthetized (isoflurane, 2-4% in ambient air supplemented with 100% 02) prior to tumor inoculation. The tumor cells (100 μL suspension of either SK-RC-52 cells (2×10^6 cells/animal) or HT-29 cells (5×10^6 cells/animal)) were subcutaneously inoculated in the right flank using a 1-mL syringe equipped with a 27 G needle. Tumor growth and animal weight were measured twice per week. Tumor size was measured by caliper and the volume was estimated using the following formula: 0.52×(length×width^2). When tumor sizes reached 150-250 mm^3, animals were randomized into groups (n=3) of similar average tumor volume and body weight.
(§6) Animals were injected intravenously with In-111-labeled compounds (single bolus, 22.3-31.2 MBq, ˜1 nmol ligand, injection volume: 100 μL) in the lateral tail vein using a 29 G syringe.
(§7) CT was performed with helical scan, 300 ms exposure, reconstruction resolution of 250 μm. SPECT was performed with multi-pinhole scan and a 30 s frame time. For the quantification of the radioactivity uptake, regions of interests (ROIs) were drawn over the tumor, kidney, liver, and heart (estimate of blood) identified on the images. Uptake was expressed as percent of injected dose per gram tissue (% ID/g).

[1] = as above; type: in vivo, NMRI nude mice; settings: female, NMRI nude, mouse, in vivo, iv, total radioactivity, HT-29, In-111-labeled, Mean ± SEM
Protocol: as §1, §2, §3, §4, §5, §6, §7

mouse CAIX = molecular target: T1, mouse CAIX (Mus musculus, UniProt Q8VHB5); test: Radioligand saturation binding on CHO-msCAIX
T1 construct: host or cells: CHO-VGT / CHO cells
T1 sequence (Q8VHB5 32-437): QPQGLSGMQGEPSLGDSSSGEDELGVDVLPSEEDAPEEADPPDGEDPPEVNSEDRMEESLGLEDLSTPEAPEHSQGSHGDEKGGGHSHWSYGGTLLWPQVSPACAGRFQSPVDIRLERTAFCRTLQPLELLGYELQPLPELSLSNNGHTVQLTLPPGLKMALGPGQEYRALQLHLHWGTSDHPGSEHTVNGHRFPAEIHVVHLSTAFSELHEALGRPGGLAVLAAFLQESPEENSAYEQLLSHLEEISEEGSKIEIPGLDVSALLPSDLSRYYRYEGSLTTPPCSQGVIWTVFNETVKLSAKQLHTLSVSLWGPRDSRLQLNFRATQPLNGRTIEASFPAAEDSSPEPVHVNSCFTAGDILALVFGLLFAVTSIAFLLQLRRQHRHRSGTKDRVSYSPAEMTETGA
Protocol: After attainment of equilibrium, the cells were harvested, and the bound fraction of the compounds was measured. The resulting saturation binding data were analyzed using Graph Pad Prism 8.3.
CHO cells transfected with human, dog, and mouse CAIX (CHO-huCA9 T04J-1/20 K1, CHO-dogCA9 T05J-9/20 K4, CHO-murCA9 T05J-3/20 K4) were obtained from InSCREENex (Germany).
A molar excess of 3BP-3565 was used as a blocking peptide to assess non-specific binding in autoradiographic studies. 3BP-3565 binds with a similar affinity to CAIX and blocks binding sites of test compounds. For the blocking solution, a 10 mM stock solution of 3BP-3565 was prepared by dissolution in DMSO.
CHO cells were maintained in Ham's medium supplemented with 10% fetal bovine serum, 2 mM L-glutamine, 100 U/mL Penicillin and 0.1 mg/mL streptomycin under standard cell culture conditions. The cells were grown in uncoated cell culture flasks (150 cm^2, Biochrom) to subconfluence and then split 1:2-1:3. Approximately 24 hours before the assay, cells were detached by incubation with Accutase and carefully tapping the flasks. Detached cells were resuspended in medium and collected by centrifugation (300 g, 5 min, RT). Cell pellets were resuspended in cell culture medium and counted using a particle counter (CASY Model TT, Scharfe Systems, Germany). Cell concentrations were adjusted to 3×10^5 mL^−1, and 1.000 μL per well of the suspension were dispensed into poly-D-lysine-coated flat-clear-bottom 24 well plates.
Compound radiolabeling was performed as follows. […] Then, 25 mg/mL methionine in 1 M sodium acetate buffer pH 5 was added at a final concentration of 0.1 M sodium acetate. Subsequently, the mixture was heated to 80° C. for 25 min, followed by cooling for 5 minutes. Finally, 20 μL of 200 mg/mL ascorbic acid solution, 2.5 μL of 5 mg/mL DTPA and 2.5 μL of 5% TWEEN-20 per 100 μL reaction mixture were added, resulting in the concentrated study solution. For quality control, an aliquot of the labeling solution was diluted 1:40 with 0.1% TWEEN-20 in 0.1 M sodium acetate buffer pH 5. Five microliters of the diluted labeling solution were injected onto a Poroshell SB-C18 2.1×50 mm, 2.7 μm column. HPLC analysis was performed as follows: Gradient A: H2O, 0.1% TFA, Gradient B: Acetonitrile (MeCN), gradient from 5% B to 70% B within 15 min, flow rate of 0.5 mL/min; detector: NaI, DAD 215 nm. The peak eluting with the dead volume represents free radionuclide, the peak eluting with the ligand-specific retention time as determined with a non-labeled sample represents the radiolabeled compound.
The radioligand saturation binding on CHO-msCAIX was determined as follows. […] Their associated radioactivity was counted using a gamma counter and normalized to the measured protein concentration of each well. […]

Row | SMILES | Time to peak uptake in tumor (SK-RC-52 tumor; 4% gelofusine before) [h] | % remaining tumor uptake at 24 h p.i. (SK-RC-52 tumor; 4% gelofusine before) [%] | Time to peak uptake in tumor (SK-RC-52 tumor; no gelofusine) [h] | % remaining tumor uptake at 24 h p.i. (SK-RC-52 tumor; no gelofusine) [%] | Time to peak uptake in tumor (HT-29 tumor) [h] | % remaining tumor uptake at 24 h p.i. (HT-29 tumor; Mean ± SEM) [%] | tissue uptake at 4 h ([1]; read-out: Blood uptake at 4 h p.i.) [%ID/g] | tissue uptake at 24 h ([1]; read-out: Kidney uptake at 24 h p.i.) [%ID/g] | tissue uptake at 4 h ([1]; read-out: Liver uptake at 4 h p.i.) [%ID/g] | Kd (mouse CAIX) [nM] | Mean pKd ± SD (mouse CAIX; CHO-msCAIX, single experiment)
1 | CC(C)C[C@@H]1NC(=O)[C@H](Cc2cccc(NC(=O)CCCS(N)(=O)=O)c2)NC(=O)[C@H](CC(=O)O)NC(=O)[C@H]2CCCN2C(=O)[C@H](CCC(=O)O)NC(=O)[C@@H](NC(=O)[C@H](CCC(N)=O)NC(=O)CN2CCN(C(=O)CN3CCN(CC(=O)O)CCN(CC(=O)O)CCN(CC(=O)O)CC3)CC2)CSCc2cccc(c2)CSC[C@@H](C(N)=O)NC(=O)[C@H](CO)NC(=O)[C@H](Cc2c[nH]c3ccccc23)NC(=O)[C@H]([C@@H](C)O)NC1=O [DPI-4452, DOTA-PPAc-Gln-[Cys(3MeBn)-Glu-pro-Asp-Af3(Cpsu)-Leu-Thr-Trp-Ser-Cys]-NH2] | 4 | 69.6 ± 6.6 | 1 | 73.3 ± 0.8 | 2 | 65.8 ± 3.8 | 0.04 ± 0.002 | 1.41 ± 0.11 | 0.12 ± 0.005 |  | 
2 | CC(C)C[C@@H]1NC(=O)[C@H](Cc2cccc(NC(=O)CCCS(N)(=O)=O)c2)NC(=O)[C@H](CC(=O)O)NC(=O)[C@H]2CCCN2C(=O)[C@H](CCC(=O)O)NC(=O)[C@@H](NC(=O)[C@H](CCC(N)=O)NC(=O)CN2CCN(C(=O)CN3CCN(CC(=O)O)CCN(CC(=O)O)CCN(CC(=O)O)CC3)CC2)CSCc2cccc(c2)CSC[C@@H](C(N)=O)NC(=O)[C@H](CO)NC(=O)[C@H](Cc2c[nH]c3ccccc23)NC(=O)[C@H]([C@@H](C)O)NC1=O [[^111In]In-DPI-4452, metal not drawn] |  |  |  |  |  |  |  |  |  | 63.1 | 7.2
